# Measured values published in patent US20090163521A1, “Novel Pyrazolopyrimidinone Derivatives” (ORCHID RESEARCH LABORATORIES LIMITED, priority 2005, published 2009).
# What was measured:
# IL-6 = test: In vitro measurement of IL-6 in LPS-stimulated human PBMC; type: cell-based; details: LPS 1 μg/ml, 18 h
# Protocol: This assay determines the effect of test compounds on the production of IL-6 in human PBMC (Physiol. Res. 52: 593-598, 2003). Compounds were tested for their ability to inhibit the activity of IL-6 in human PBMC. PBMC were isolated from blood using BD Vacutainer CPT™ Cell preparation tube (BD Bio Science) and suspended in RPMI medium. The test compounds were pre-incubated with PBMC (0.5 million/incubation well) for 15 minutes at 37° C. and then stimulated with Lipopolysaccharide (Escherichia coli: B4; 1 μg/ml) for 18 h at 37° C. in 5% CO2. The levels of IL-6 in cell culture medium were estimated using enzyme linked Immunosorbent assay performed in a 96 well format as per the procedure of the manufacturer (Cayman Chemical, Ann Arbor, USA).
# TNF-α [1] = test: In vitro measurement of TNF-α in LPS-stimulated human PBMC; type: cell-based; details: LPS 1 μg/ml, 18 h
# Protocol: This assay determines the effect of test compounds on the production of TNF α in human Peripheral Blood Mononuclear Cells (PBMC). Compounds were tested for their ability to inhibit the activity of TNF α in human PBMC. PBMC were isolated from blood (from healthy volunteers) using BD Vacutainer CPT™ (Cell preparation tube, BD Bio Science) and suspended in RPMI medium (Physiol. Res. 52: 593-598, 2003). The test compounds were pre-incubated with PBMC (0.5 million/incubation well) for 15 minutes at 37° C. and then stimulated with Lipopolysaccharide (Escherichia coli: B4; 1 μg/ml) for 18 h at 37° C. in 5% CO2. The levels of TNFα in cell culture medium were estimated using enzyme linked Immunosorbent assay performed in a 96 well format as per the procedure of the manufacturer (Cayman Chemical, Ann Arbor, USA).
# [2] = target: T1, purified recombinant COX-2 (Homo sapiens, UniProt P35354); test: COX-2 enzyme based assay; type: biochemical
# T1 sequence (P35354 18-604): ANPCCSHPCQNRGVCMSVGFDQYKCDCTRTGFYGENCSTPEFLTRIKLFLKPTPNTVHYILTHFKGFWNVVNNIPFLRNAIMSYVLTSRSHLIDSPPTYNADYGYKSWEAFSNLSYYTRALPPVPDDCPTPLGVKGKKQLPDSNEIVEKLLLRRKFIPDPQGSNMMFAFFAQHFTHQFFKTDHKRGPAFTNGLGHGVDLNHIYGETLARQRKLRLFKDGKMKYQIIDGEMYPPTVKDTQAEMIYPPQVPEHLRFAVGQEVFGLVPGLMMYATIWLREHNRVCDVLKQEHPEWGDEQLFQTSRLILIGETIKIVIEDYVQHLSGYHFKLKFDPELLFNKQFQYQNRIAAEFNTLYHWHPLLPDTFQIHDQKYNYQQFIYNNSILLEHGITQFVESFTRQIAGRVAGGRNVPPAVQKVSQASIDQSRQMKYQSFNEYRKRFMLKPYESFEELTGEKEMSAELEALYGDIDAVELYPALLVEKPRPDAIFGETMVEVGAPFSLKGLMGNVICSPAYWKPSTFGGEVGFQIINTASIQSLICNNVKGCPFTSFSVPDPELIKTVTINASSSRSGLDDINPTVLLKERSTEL
# Protocol: (§1) COX-1 and COX-2 enzyme based assays were carried out to check the inhibitory potential of test compounds on the production of prostaglandin by purified recombinant COX-1/COX-2 enzyme (Proc. Nat. Acad. Sci. USA, 88, 2692-2696, 1991; J. Clin. Immunoassay 15, 116-120, 1992) In this assay, the potential of test compound to inhibit the production of prostaglandin either by COX-1 or COX-2 from arachidonic acid (substrate) was measured. This was an enzyme based in-vitro assay to evaluate selective COX inhibition with good reproducibility.
# (§2) Arachidonic acid was converted to PGH2 (Intermediate product) by COX1/COX-2 in presence or absence of the test compound. The reaction was carried out at 37° C. and after 2 minutes it was stopped by adding 1M HCl. Intermediate product PGH2 was converted to a stable prostanoid product PGF2α by SnCl2 reduction. The amount of PGF2α produced in the reaction was inversely proportional to the COX inhibitory potential of the test compound. The prostanoid product was quantified via enzyme immunoassay (EIA) using a broadly specific antibody that binds to all the major forms of prostaglandin, using Cayman ELISA kit as per the procedure outlined by the manufacturer (Cayman Chemicals, Ann Arbor, USA).
# [3] = target: T2, purified recombinant COX-1 (Ovis aries, UniProt P05979); test: COX-1 enzyme based assay; type: biochemical
# T2 sequence (P05979 25-600): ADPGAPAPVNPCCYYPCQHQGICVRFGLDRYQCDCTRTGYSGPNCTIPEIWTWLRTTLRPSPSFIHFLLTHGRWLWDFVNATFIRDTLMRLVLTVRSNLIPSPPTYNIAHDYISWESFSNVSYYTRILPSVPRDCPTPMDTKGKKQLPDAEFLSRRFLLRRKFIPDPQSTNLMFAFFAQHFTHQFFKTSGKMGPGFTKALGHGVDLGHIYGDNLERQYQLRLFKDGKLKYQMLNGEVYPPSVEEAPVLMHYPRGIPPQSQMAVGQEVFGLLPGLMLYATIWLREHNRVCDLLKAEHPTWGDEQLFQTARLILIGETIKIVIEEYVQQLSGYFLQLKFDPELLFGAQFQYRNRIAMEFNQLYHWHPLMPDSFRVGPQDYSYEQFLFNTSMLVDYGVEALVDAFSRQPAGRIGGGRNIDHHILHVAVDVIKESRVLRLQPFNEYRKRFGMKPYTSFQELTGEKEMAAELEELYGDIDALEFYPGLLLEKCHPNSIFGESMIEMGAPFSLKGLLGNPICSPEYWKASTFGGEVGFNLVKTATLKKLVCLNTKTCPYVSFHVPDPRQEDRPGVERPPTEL
# Protocol: as §1, §2
# COX-2 = target: T3, COX-2 (Homo sapiens, UniProt P35354); test: Human whole blood assay (LPS-induced PGE2, COX-2 inhibition); type: cell-based; details: LPS stimulated
# T3 construct: Fresh blood was collected in tubes containing sodium heparin by vein puncture from healthy male volunteers; endogenous in cells; host or cells: human whole blood from healthy male volunteers, aspirin-pretreated and LPS-stimulated
# T3 sequence (P35354 18-604): T1 sequence (P35354 18-604)
# Protocol: Human whole blood provides a protein and cell rich milieu appropriate for the study of biochemical efficacy of anti-inflammatory compounds such as selective COX-2 inhibitors. […] This is correlating with the observation that COX-2 inhibitors have no effect on prostaglandin E2 (PGE2) production in normal blood. These inhibitors were active only after incubation of human blood with lipopolysaccharide (LPS), which induces COX-2 production in the blood.
# Fresh blood was collected in tubes containing sodium heparin by vein puncture from healthy male volunteers. The subjects should have no apparent inflammatory conditions and not taken NSAIDs for at least 7 days prior to blood collection. Blood was preincubated with aspirin in vitro (12 μg/ml, at time zero) to inactivate COX-1 for 6 hours. Then test compounds (at various concentrations) or vehicle were added to blood. After that blood was stimulated with LPS B:4 (10 μg/ml) and incubated for another 18 h at 37° C. water bath. After which the blood was centrifuged, plasma was separated and stored at −80° C. (J. Pharmacol. Exp. Ther, 271, 1705, 1994; Proc. Natl. Acad. Sci. USA, 96, 7563, 1999). The plasma was assayed for PGE2 using Cayman ELISA kit as per the procedure outlined by the manufacturer (Cayman Chemicals, Ann Arbor, USA).
# TNF-α [4] = test: LPS induced sepsis for measurement of TNF-α inhibition in mice; type: in vivo; details: oral, serum 90 min after LPS
# Protocol: The LPS induced sepsis model in mice was performed as described by Les sekut et al (J Lab Clin Med 1994; 124:813-20). Female Swiss albino mice were selected and the body weights were equivalent within each group. The mice were fasted for 20 hours with free access to water. The mice were dosed orally with the test compound suspended in vehicle containing 0.5% Tween 80 in 0.25% Carboxy-methylcellulose sodium salt. The control mice were administered the vehicle alone. After 30 min of oral dosing, mice were injected with 500 μg of Lipopolysaccharide (Escherichia coli, LPS: B4 from Sigma) in phosphate buffer saline solution into the intraperitoneal cavity of the mice. After 90 min of LPS administration mice were bled via retro-orbital sinus puncture. Blood samples were stored overnight at 4° C. Serum samples were collected by centrifuging the samples at 400 rpm for 15 min at 4° C. Immediately the serum samples were analysed for TNFα levels using commercially available mouse TNF-α ELISA kit (Amersham Biosciences) and assay was performed by the manufacturer instruction.
Compound,inhibition at 1 µM (IL-6) [%],inhibition at 10 µM (TNF-α [1]) [%],other results
"CSc1ccc(-c2nc3c(c(N)nn3C)c(=O)n2-c2ccc(C(C)C)cc2)cc1 [Example 22, 3-Amino-5-(4-isopropylphenyl)-1-methyl-6-[4-(methylthio)phenyl]-1,5-dihydro-4H-pyrazolo[3,4-d]pyrimidin-4-one]",12,54,–
"CSc1ccc(-c2nc3c(c(NC(=O)C(F)(F)F)nn3C)c(=O)n2-c2ccc(C)cc2C)cc1 [Example 40, 2,2,2-trifluoro-N-{5-(2,4-dimethylphenyl)-1-methyl-6-[4-(methylthio)phenyl]-4-oxo-4,5-dihydro-1H-pyrazolo[3,4-d]pyrimidin-3-yl}acetamide]",–,78,inhibition at 10 µM ([2]; Conc. 10 μM): 15.5%; inhibition at 10 µM ([3]; Conc. 10 μM): 3.11%
"CSc1ccc(-c2nc3[nH]nc(N)c3c(=O)n2-c2ccc(C)cc2)cc1 [Example 1, 3-amino-5-(4-methylphenyl)-6-[4-(methylthio)phenyl]-1,5-dihydro-4H-pyrazolo[3,4-d]pyrimidin-4-one]",–,–,inhibition at 0.25 µM (COX-2; 0.25 μM): 20.3%; inhibition at 10 µM (COX-2; 10 μM): 41.6%; melting point: > 285 °C
"CSc1ccc(-c2nc3[nH]nc(N)c3c(=O)n2-c2ccc(Br)cc2)cc1 [Example 19, 3-Amino-5-(4-bromophenyl)-6-[(4-methylthio)phenyl]-1,5-dihydro-4H-pyrazolo[3,4-d]pyrimidin-4-one]",15.9,64.8,–
"CSc1ccc(-c2nc3c(c(N)nn3C)c(=O)n2-c2ccc(C)cc2C)cc1 [Example 23, 3-Amino-5-(2,4-dimethylphenyl)-1-methyl-6-[4-(methylthio)phenyl]-1,5-dihydro-4H-pyrazolo[3,4-d]pyrimidin-4-one]",–,86.3,COX-2 Inhibition (%) ([2]; Conc. 1 μM): Not Active; inhibition at 1 µM ([3]; Conc. 1 μM): 51.6%; TNF-α Inhibition (%) (TNF-α [4]; at 5 mg/kg): 92.02 (at 5 mg/kg) %
"CCOc1ccc(-n2c(-c3ccc(SC)cc3)nc3c(c(N)nn3C)c2=O)cc1 [Example 21, 3-Amino-5-(4-ethoxyphenyl)-1-methyl-6-[4-(methylthio)phenyl]-1,5-dihydro-4H-pyrazolo[3,4-d]pyrimidin-4-one]",–,75.1,TNF-α Inhibition (%) (TNF-α [4]; at 50 mg/kg): 75.15 (at 50 mg/kg) %
"CSc1ccc(-c2nc3[nH]nc(NC(C)=O)c3c(=O)n2-c2ccc(C)c(C)c2)cc1 [Example 36, N-[5-(3,4-Dimethylphenyl)-4-oxo-6-[(4-methylthio)phenyl]-4,5-dihydro-1H-pyrazolo[3,4-d]pyrimidin-3-yl]acetamide]",12.7,29.9,–
